Target: Pol Theta (1-894) (Homo sapiens (Human), UniProt O75417)
Experiment: Biochemical Pol Theta (1-894) ATPase IC50 assay (ADP-Glo, ssDNA substrate)
Conditions: ADP-Glo assay with ssDNA substrate, room temperature
Procedure, shortened: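 His-tagged human Pol Theta 1-894 from Sf9 baculovirus cells, 2× enzyme solution at 12.5 nM, assayed with ssDNA substrate at room temperature in 40 mM Tris pH 7.5, 20 mM MgCl2, 1 mM DTT, 0.01% BSA, 0.05% Tween-20.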

Pol Theta (1-894), sequence (O75417 1-894): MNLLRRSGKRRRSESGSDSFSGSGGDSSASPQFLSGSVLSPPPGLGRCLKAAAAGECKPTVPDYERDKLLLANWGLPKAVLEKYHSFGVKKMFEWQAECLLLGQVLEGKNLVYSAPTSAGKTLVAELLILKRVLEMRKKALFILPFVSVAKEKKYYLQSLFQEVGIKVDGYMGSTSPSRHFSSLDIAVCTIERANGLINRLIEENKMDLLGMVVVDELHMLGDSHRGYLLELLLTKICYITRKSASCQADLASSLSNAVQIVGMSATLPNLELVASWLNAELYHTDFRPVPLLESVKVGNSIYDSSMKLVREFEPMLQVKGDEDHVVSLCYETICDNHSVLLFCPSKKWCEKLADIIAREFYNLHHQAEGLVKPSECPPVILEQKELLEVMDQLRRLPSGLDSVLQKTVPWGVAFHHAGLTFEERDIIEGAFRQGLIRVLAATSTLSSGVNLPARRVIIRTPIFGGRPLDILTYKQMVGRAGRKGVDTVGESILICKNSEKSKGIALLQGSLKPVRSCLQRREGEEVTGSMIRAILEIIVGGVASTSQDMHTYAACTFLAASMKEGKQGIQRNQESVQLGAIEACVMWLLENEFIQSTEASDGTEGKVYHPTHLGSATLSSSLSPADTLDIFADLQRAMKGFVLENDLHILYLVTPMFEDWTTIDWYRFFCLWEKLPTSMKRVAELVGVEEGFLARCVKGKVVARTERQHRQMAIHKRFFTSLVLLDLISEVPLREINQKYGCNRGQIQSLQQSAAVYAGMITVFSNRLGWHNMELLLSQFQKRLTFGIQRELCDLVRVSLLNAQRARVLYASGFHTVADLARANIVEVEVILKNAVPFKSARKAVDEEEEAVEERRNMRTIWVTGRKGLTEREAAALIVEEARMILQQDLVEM

Row | IC50 | SMILES
1 | 6.5 nM | COc1cccc(F)c1-c1cc(C)ncc1C(=O)Nc1nc2ccc(-c3ccc(C#N)cc3)nc2s1 [Example 104, N-(5-(4-cyanophenyl)thiazolo[5,4-b]pyridin-2-yl)-4-(2-fluoro-6-methoxyphenyl)-6-methylnicotinamide]
2 | 5.4 nM | COc1ccccc1-c1cnncc1C(=O)Nc1nc2ccc(-c3ccc(NC(C)=O)c(F)c3)nc2s1 [Example 142, N-(5-(4-acetamido-3-fluorophenyl)thiazolo[5,4-b]pyridin-2-yl)-5-(2-methoxyphenyl)pyridazine-4-carboxamide]
3 | 58 nM | COc1ccc(C2CC2)cc1-c1cc(C)ncc1C(=O)Nc1nc2ccc(-c3ccc(C#N)cc3)nc2s1 [Example 57, N-(5-(4-cyanophenyl)thiazolo[5,4-b]pyridin-2-yl)-4-(5-cyclopropyl-2-methoxyphenyl)-6-methylnicotinamide]
4 | 21 nM | COc1ccccc1-c1cnncc1C(=O)Nc1nc2ccc(-c3ccc(Cl)c(C)c3C)nc2s1 [Example 139, N-(5-(4-chloro-2,3-dimethylphenyl)thiazolo[5,4-b]pyridin-2-yl)-5-(2-methoxyphenyl)pyridazine-4-carboxamide]

— US20250026766A1, “Thiazolopyridyl Amide Derivatives as DNA Polymerase Theta Inhibitors” (BeiGene, Ltd., priority 2022, published 2025)
